Test results taken from patent publication US20260373266A1, “PROTEIN DEGRADERS AND USES THEREOF” (KYMERA THERAPEUTICS, INC., priority 2022, published 2026).

Biological target: T1, DCAF1 WD40 domain (residues 1077-1390) (Homo sapiens, UniProt Q9Y4B6)
T1 construct: DCAF1 WD40 domain (residues 1077-1390)
Assay: DCAF1 binding assay by SPR (Biacore 8K+), DCAF1-3 KD
Settings: 25 °C, read-out: DCAF1-3 SPR (KD)

T1 sequence (Q9Y4B6 1077-1390): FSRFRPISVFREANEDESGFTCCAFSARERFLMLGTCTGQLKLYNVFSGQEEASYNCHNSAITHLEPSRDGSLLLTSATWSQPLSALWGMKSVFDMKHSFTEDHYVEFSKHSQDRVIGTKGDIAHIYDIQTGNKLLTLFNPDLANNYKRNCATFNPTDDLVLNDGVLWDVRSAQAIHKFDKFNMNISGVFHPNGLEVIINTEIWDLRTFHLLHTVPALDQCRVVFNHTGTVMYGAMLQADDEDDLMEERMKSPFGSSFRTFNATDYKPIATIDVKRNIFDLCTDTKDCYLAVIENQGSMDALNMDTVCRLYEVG

Row | Structure (SMILES) | Kd [µM]
1 | OCCC[C@H]1C[C@H]2[C@@H](CCCN2c2cccc(F)c2)N1c1cc(N2CCCCC2)ccn1 [I-834] | 10 to 100
2 | OCCC[C@H]1C[C@H]2[C@H](CCCN2c2cccc(F)c2)N1c1cc(N2CCCCC2)ccn1 [I-835] | > 200
3 | CC(NC(=O)c1cn[nH]c1-c1cccc(Cl)c1)c1ccc[nH]1 (stereo not shown) [I-836] | > 200
4 | Cc1n[nH]c(C(F)(F)F)c1C(=O)N[C@@H](CC(N)=O)c1ccccc1 [I-837] | > 200
5 | COc1ccc(-c2[nH]ncc2C(=O)NC(C)C(=O)Nc2ccccc2)cc1 (stereo not shown) [I-838] | > 200
6 | C[C@@H](NC(=O)c1cn[nH]c1-c1c(F)cccc1F)c1ncc[nH]1 [I-839] | > 200
7 | Fc1cccc(N2CCC[C@H](N3CCc4c(N5CC6CC(C6)C5)ccnc43)C2)c1 [I-840] | > 200
8 | Fc1cccc(N2CCC[C@@H](N3CCc4c(N5CC6CC(C6)C5)ccnc43)C2)c1 [I-841] | < 10
9 | Cc1c(F)ccc(F)c1-c1[nH]ncc1C(=O)N[C@@H](CC(=O)N1CCOCC1)c1cccc(Cl)c1 [I-842] | < 10
10 | Cc1c(F)ccc(F)c1-c1[nH]ncc1C(=O)N[C@@H](CC(=O)N1CCN(C)CC1)c1cccc(Cl)c1 [I-843] | < 10
11 | Cc1c(F)ccc(F)c1-c1c(C(=O)NC(CC(N)=O)c2cccc(Cl)c2)cn(C)c1C(=O)COCCOCCOCCOCCOCCN (stereo not shown) [I-844] | < 10
12 | C=CC(=O)NCCCN1CCN(c2ccnc3c2CCN3C2CCCN(c3cccc(F)c3)C2)CC1 (stereo not shown) [I-845] | 10 to 100
13 | C=CC(=O)NCCCN1CCN(c2ccnc(N3CC[C@@H]4[C@H]3CCCN4c3cccc(F)c3)c2)CC1 [I-846] | 10 to 100
14 | OC[C@H]1CC[C@H](Nc2cc(N3CCCCC3)ccn2)CC1 [I-847] | > 200
15 | C=CC(=O)N(C)CCCCC1CCN(c2ccnc(N3CC[C@@H]4[C@H]3CCCN4c3cccc(F)c3)c2)CC1 [I-850] | < 10
16 | Cc1c(F)ccc(F)c1-c1c(C(=O)N[C@@H](CC(=O)N2CCNCC2)c2cccc(Cl)c2)c[nH]c1C(=O)c1ccccc1 [I-851] | < 10
17 | C=CC(=O)NCCCCC1CCN(c2ccnc(N3CC[C@@H]4[C@H]3CCCN4c3cccc(F)c3)c2)CC1 [I-852] | < 10
18 | CCC(=O)NC1CCC2(CC1)CCN(c1cccc(N[C@@H]3CCCN(c4cccc(F)c4)C3)c1)CC2 [I-853] | < 10
19 | COc1cc(N2CCC[C@@H](Nc3cc(N4CCOCC4)ccn3)C2)cnc1CO [I-854] | 10 to 100
20 | O=C(O)c1cc2c(N3CCC[C@@H](Nc4cc(N5CCOCC5)ccn4)C3)cccc2s1 [I-855] | > 200
21 | NCCCc1ccc(N2CCC[C@@H](Nc3cc(N4CCOCC4)ccn3)C2)cc1 [I-856] | 10 to 100
22 | CSc1ccc(N2CCC[C@@H](Nc3cc(N4CCOCC4)ccn3)C2)c(Cl)c1 [I-857] | > 200

Row | Structure (SMILES) | Kd [µM]
23 | c1cc(N2CCOCC2)cc(N[C@@H]2CCCN(c3ccc4c(N5CCNCC5)ccnc4c3)C2)n1 [I-858] | 10 to 100
24 | COc1ncc2cc[nH]c2c1N1CCC[C@@H](Nc2cc(N3CCOCC3)ccn2)C1 [I-859] | 10 to 100
25 | OCCc1ccc(N2CCC[C@@H](Nc3cc(N4CCOCC4)ccn3)C2)cc1 [I-860] | > 200
26 | OCCc1cccc(N2CCC[C@@H](Nc3cc(N4CCOCC4)ccn3)C2)c1 [I-861] | 10 to 100
27 | OCCCc1cccc(N2CCC[C@@H](Nc3cc(N4CCOCC4)ccn3)C2)c1 [I-862] | 10 to 100
28 | NC(=O)Cc1ccc(N2CCC[C@@H](Nc3cc(N4CCOCC4)ccn3)C2)cc1 [I-863] | > 200
29 | C[S@@+]([O-])c1ccc(N2CCC[C@@H](Nc3cc(N4CCOCC4)ccn3)C2)cc1 [I-864] | > 200
30 | NCCc1cccc(N2CCC[C@@H](Nc3cc(N4CCOCC4)ccn3)C2)c1 [I-865] | > 200
31 | NCc1cccc(N2CCC[C@@H](Nc3cc(N4CCOCC4)ccn3)C2)c1 [I-866] | > 200
32 | NCCCc1cccc(N2CCC[C@@H](Nc3cc(N4CCOCC4)ccn3)C2)c1 [I-867] | 10 to 100
33 | NCc1ccc(N2CCC[C@@H](Nc3cc(N4CCOCC4)ccn3)C2)cc1 [I-868] | < 10
34 | NC(=O)CCc1ccc(N2CCC[C@@H](Nc3cc(N4CCOCC4)ccn3)C2)cc1 [I-869] | 10 to 100
35 | c1ccc(CN2CCc3ncnc(N4CCC[C@@H](Nc5cc(N6CCOCC6)ccn5)C4)c3C2)cc1 [I-870] | 10 to 100
36 | NCCc1ccc(N2CCC[C@@H](Nc3cc(N4CCOCC4)ccn3)C2)cc1 [I-871] | > 200
37 | c1cc(N2CCOCC2)cc(N[C@@H]2CCCN(c3ccc4c(c3)CCC4)C2)n1 [I-872] | > 200
38 | OCCCc1ccc(N2CCC[C@@H](Nc3cc(N4CCOCC4)ccn3)C2)cc1 [I-873] | > 200
39 | NC(=O)CCc1cc(N2CCC[C@H]3[C@@H]2CCN3c2cc(N3CCCCC3)ccn2)ccc1F [I-874] | < 10
40 | NC(=O)CCc1cc(N2CCC[C@@H]3[C@H]2CCN3c2cc(N3CCCCC3)ccn2)ccc1F [I-875] | 10 to 100
41 | Cc1c(F)ccc(F)c1-c1c(C(=O)N[C@@H](CC(=O)N2CCNCC2)c2cccc(Cl)c2)c[nH]c1C#N [I-876] | < 10
42 | Cc1c(F)ccc(F)c1-c1[nH]ncc1C(=O)N[C@@H](CC(=O)N1CC(O)C1)c1cccc(Cl)c1 [I-877] | < 10
43 | Cc1c(F)ccc(F)c1-c1[nH]ncc1C(=O)N[C@@H](CC(=O)N1CC(N(C)C)C1)c1cccc(Cl)c1 [I-878] | < 10
44 | NC(=O)CCc1cccc(N2CCC[C@@H]3[C@H]2CCN3c2cc(N3CCCCC3)ccn2)c1 [I-879] | 10 to 100

Row | Structure (SMILES) | Kd [µM]
45 | CNC1CN(C(=O)C[C@H](NC(=O)c2cn[nH]c2-c2c(F)ccc(F)c2C)c2cccc(Cl)c2)C1 [I-880] | < 10
46 | NC(=O)CCc1cccc(N2CCC[C@H]3[C@@H]2CCN3c2cc(N3CCCCC3)ccn2)c1 [I-881] | < 10
47 | Cc1c(F)ccc(F)c1-c1c(C(=O)N[C@@H](CC(N)=O)c2cccc(Cl)c2)c[nH]c1S(C)(=O)=O [I-882] | < 10
48 | Cc1c(F)ccc(F)c1-c1[nH]ncc1C(=O)N[C@@H](CC(=O)N1CCC(O)C1)c1cccc(Cl)c1 (stereo partly shown) [I-883] | < 10
49 | Cc1c(F)ccc(F)c1-c1[nH]ncc1C(=O)N[C@@H](CC(=O)N1CCN(C(=O)OCc2ccccc2)CC1)c1cccc(Cl)c1 [I-884] | < 10
50 | Cc1c(F)ccc(F)c1-c1[nH]ncc1C(=O)N[C@@H](CC(=O)N1CCNCC1)c1cccc(Cl)c1 [I-885] | < 10
51 | Cc1c(F)ccc(F)c1-c1c(C(=O)N[C@@H](CC(N)=O)c2cccc(Cl)c2)cn(C)c1C(=O)c1ccccc1 [I-886] | < 10
52 | Cc1sc2c(c1C)C(c1ccc(Cl)cc1)=N[C@@H](CC(=O)NCCOCCOCCOCCOCCOCCOCCOCCn1cc(C(=O)N[C@@H](CC(N)=O)c3cccc(Cl)c3)c(-c3ccccc3F)n1)c1nnc(C)n1-2 [I-888] | > 200
53 | Cc1sc2c(c1C)C(c1ccc(Cl)cc1)=N[C@@H](CC(=O)NCCOCCOCCOCCOCCOCCOCCn1cc(C(=O)N[C@@H](CC(N)=O)c3cccc(Cl)c3)c(-c3ccccc3F)n1)c1nnc(C)n1-2 [I-889] | > 200
54 | Cc1sc2c(c1C)C(c1ccc(Cl)cc1)=N[C@@H](CC(=O)NCCOCCOCCOCCOCCC1CCN(c3ccnc(N4CC[C@@H]5[C@H]4CCCN5c4cccc(F)c4)c3)CC1)c1nnc(C)n1-2 [I-890] | < 10
55 | Cc1sc2c(c1C)C(c1ccc(Cl)cc1)=N[C@@H](CC(=O)NCCOCCOCCOCCOCCOCCC1CCN(c3ccnc(N4CC[C@@H]5[C@H]4CCCN5c4cccc(F)c4)c3)CC1)c1nnc(C)n1-2 [I-891] | < 10
56 | Cc1sc2c(c1C)C(c1ccc(Cl)cc1)=N[C@@H](CC(=O)NCCCCCCCCCCCCC(=O)c1[nH]cc(C(=O)C[C@@H](CC(N)=O)c3cccc(Cl)c3)c1-c1ccccc1F)c1nnc(C)n1-2 [I-892] | > 200
57 | Cc1sc2c(c1C)C(c1ccc(Cl)cc1)=N[C@@H](CC(=O)NCCCCCCCCCCCCCCCCCC(=O)c1[nH]cc(C(=O)N[C@@H](CC(N)=O)c3cccc(Cl)c3)c1-c1ccccc1F)c1nnc(C)n1-2 [I-893] | > 200
58 | Cc1sc2c(c1C)C(c1ccc(Cl)cc1)=N[C@@H](CC(=O)NCCCCCCCCCCCCCCCCCCCCC(=O)c1[nH]cc(C(=O)N[C@@H](CC(N)=O)c3cccc(Cl)c3)c1-c1ccccc1F)c1nnc(C)n1-2 [I-894] | > 200
59 | Cc1sc2c(c1C)C(c1ccc(Cl)cc1)=N[C@@H](CC(=O)NCCOCCOCCOCCOCCOCCOCCC1CCN(c3ccnc(N4CC[C@@H]5[C@H]4CCCN5c4cccc(F)c4)c3)CC1)c1nnc(C)n1-2 [I-895] | 10 to 100
60 | Cc1sc2c(c1C)C(c1ccc(Cl)cc1)=N[C@@H](CC(=O)NCCOCCOCCOCCOCC(=O)c1[nH]cc(C(=O)N[C@@H](CC(N)=O)c3cccc(Cl)c3)c1-c1ccccc1F)c1nnc(C)n1-2 [I-896] | < 10
61 | Cc1sc2c(c1C)C(c1ccc(Cl)cc1)=N[C@@H](CC(=O)NCCOCCOCCOCCOCCOCC(=O)c1[nH]cc(C(=O)N[C@@H](CC(N)=O)c3cccc(Cl)c3)c1-c1ccccc1F)c1nnc(C)n1-2 [I-897] | < 10
62 | Cc1sc2c(c1C)C(c1ccc(Cl)cc1)=N[C@@H](CC(=O)NCCOCCOCCOCCOCCOCCOCC(=O)c1[nH]cc(C(=O)N[C@@H](CC(N)=O)c3cccc(Cl)c3)c1-c1ccccc1F)c1nnc(C)n1-2 [I-898] | < 10
63 | Cc1sc2c(c1C)C(c1ccc(Cl)cc1)=N[C@@H](CC(=O)N(C)CCOCCOCCOCCOCCOCC(=O)c1[nH]cc(C(=O)N[C@@H](CC(N)=O)c3cccc(Cl)c3)c1-c1ccccc1F)c1nnc(C)n1-2 [I-900] | < 10
64 | Cc1sc2c(c1C)C(c1ccc(Cl)cc1)=N[C@@H](CC(=O)NCCCCCCCCCCCCCCCCCC1CCN(c3ccnc(N4CC[C@@H]5[C@H]4CCCN5c4cccc(F)c4)c3)CC1)c1nnc(C)n1-2 [I-901] | > 200
65 | Cc1sc2c(c1C)C(c1ccc(Cl)cc1)=N[C@@H](CC(=O)NCCCCCCCCCCCCCCC1CCN(c3ccnc(N4CC[C@@H]5[C@H]4CCCN5c4cccc(F)c4)c3)CC1)c1nnc(C)n1-2 [I-902] | > 200
66 | Cc1sc2c(c1C)C(c1ccc(Cl)cc1)=N[C@@H](CC(=O)NCCCCCCCCCCCCCCCCCCCCC1CCN(c3ccnc(N4CC[C@@H]5[C@H]4CCCN5c4cccc(F)c4)c3)CC1)c1nnc(C)n1-2 [I-903] | > 200

Same assay, conditions: DCAF1-3 SPR (KD), 25 °C

Row | Structure (SMILES) | Kd [µM]
67 | Cc1c(F)ccc(F)c1-c1c(C(=O)N[C@@H](CC(N)=O)c2cccc(Cl)c2)cn(C)c1C#N [I-887, (S)—N-(3-amino-1-(3-chlorophenyl)-3-oxopropyl)-5-cyano-4-(3,6-difluoro-2-methylphenyl)-1-methyl-1H-pyrrole-3-carboxamide] | < 10
